Laboratory results taken from PubChem BioAssay (NCI).
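Each compound was tested at five concentrations against cells in 96-well plates for 48 hours. GI50: concentration for 50% inhibition of growth. TGI: total growth inhibition.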

Experiments:
Experiment in all cases: NCI anticancer screen, dose series, 48 h
[1] = system: A498 renal
[2] = system: OVCAR-8 ovarian
[3] = system: TK-10 renal
[4] = system: SF-295 CNS
[5] = system: MALME-3M melanoma
[6] = system: OVCAR-3 ovarian
[7] = system: NCI-H522 lung
[8] = system: OVCAR-4 ovarian
[9] = system: COLO 205 colon
[10] = system: HCC-2998 colon

Compound	TGI [1] [µM]	TGI [2] [µM]	TGI [3] [µM]	TGI [4] [µM]	TGI [5] [µM]	TGI [6] [µM]	TGI [7] [µM]	TGI [8] [µM]	TGI [9] [µM]	TGI [10] [µM]	GI50 [1] [µM]	GI50 [2] [µM]	GI50 [3] [µM]	GI50 [4] [µM]	GI50 [5] [µM]	GI50 [6] [µM]	GI50 [7] [µM]	GI50 [8] [µM]	GI50 [9] [µM]	GI50 [10] [µM]
COc1ccc(C(=O)NCCN(C)C)c2nc3ccccc3nc12	16.3	> 41.5	76.7	> 36.1	6.8	> 29.3	> 100	16.8	> 26.1	26.3										
C(=N\Nc1nnn(Cc2ccccc2)n1)/c1ccccc1	55.3	> 100	> 100	56.3	> 82.7	7.95		> 100	> 59.2	> 100	5.76	6.72	20	3.44	4.64	2.26	0.56	> 100	3.2	5.07
COC(=O)C1(C(=O)OC)CC(=O)c2cc3c(cc2-c2c(cc(OC)c(OC)c2OC)C1)OCO3		> 211	> 211	> 211	> 211	> 211	> 211		> 211	> 211										
CSC1=Nc2ccccc2N=C(c2ccc(Cl)cc2)C1		> 100		> 100	92.6	> 100	> 100	> 100	> 100											
CSc1nnc(COc2ccc(Cl)cc2)o1	> 100	> 100	> 100	> 100	> 100	> 100	> 100	> 100	> 100											
C[N+](C)(C)CC1CCCCC1O (stereo not given)	> 100	> 100	> 100	> 100		> 100	> 100	> 100	> 100	> 100										
CC(=O)N1CCC2(c3ccccc3N(C(C)=O)C2c2ccc(O)cc2)C1C(=O)O (stereo not given)	> 100	> 100	> 100	> 100	> 100	> 100	> 100		> 100	> 100										
CCOC(=O)C(NC(=O)c1nc[nH]c1[N+](=O)[O-])C(C)C (stereo not given)	> 100	> 100		> 100	> 100	> 100	> 100	> 100	> 100	> 100										
O=C(N/N=C/c1cccc(F)c1)c1ccncc1	> 100		> 100	> 100	> 100				> 100	> 100										
O=S(=O)(NCCCNc1nccc(-c2c(-c3ccc(F)cc3)nc3sccn23)n1)c1ccc2ccccc2c1	> 100	> 100	> 100	> 100			> 100	> 100	4.81	9.61	3.01	4.63	7.54	6.86			5.66	5.99	2.22	3.37
Cc1ccccc1NC(=O)C1C(=O)N(c2ccccc2C)C(=O)/C1=N\NC(N)=S (stereo not given)			> 100	> 100	> 100	> 100	> 100													
CCNC(=O)COc1ccc(Cl)cc1Cl	> 100	> 100		> 100	> 100	> 100	> 100		> 100											
CC(C)CCC1(CCN)C(=O)NC(=O)NC1=O	> 100	> 100	> 100	> 100	> 100	> 100	> 100	> 100	> 100											
CCCCn1c(-c2ccc(C(=O)O/N=C(\N)c3ccc4c(c3)OCO4)cc2)nc(-c2ccccc2)c1-c1ccccc1	2.82	> 100		4.38	4.3		4.89	> 100	11	22.5	0.306	3.37		2.03	1.78		2.04	3.5	2.69	3.13
c1c[nH]c(CN2CCOCC2)n1	> 100	> 100	> 100	> 100	> 100	> 100	> 100	> 100	> 100											
CC(C)(Oc1ccc(/C=C/C(=O)c2ccc(Cl)cc2)cc1)C(=O)Nc1c(Cl)cccc1Cl	32.4	30.5	> 100	49.6	40.4	44.8		> 100	40.2	51.5										
Cc1ccc(-c2nc3nc(-c4ccc(F)cc4)nc(N4CCCNCC4)c3o2)cc1	3.12		3.09	3.35	3.21	2.96	3.51	3.25	4.07	3.37	1.68		1.66	1.82	1.71	1.55	1.65	1.83	2.03	1.68
COc1ccc(/C(=N\NC(=S)NN)C(c2ccc(OC)cc2)C2C(=O)Oc3ccccc32)cc1 (stereo not given)		> 100	> 100	> 100	> 100	> 100	> 100	> 100	> 100	> 100		> 100	> 100	> 100	> 100	> 100		> 100	> 100	
N#Cc1ccc(NC(=O)C(CC(=O)OCc2ccccc2)NC(=O)OCc2ccccc2)cc1 (stereo not given)		> 100	> 100	> 100	> 100		> 100	> 100	> 100	> 100		> 100	> 100	> 100			> 100	> 100	> 100	
Cn1c2c(c3ccccc31)CCN(CCN1CCN(c3cccc(Cl)c3)CC1)C2=O	> 100	> 100	> 100				> 100		> 100											
